Experiments:
Format in all cases: functional
SK-MEL-5 = assay: Cytotoxicity against Homo sapiens (human) SK-MEL-5 cells after 48 hr by SRB assay; settings: SK-MEL-5, 48 h
OVCAR-3 = assay: Cytotoxicity against Homo sapiens (human) OVCAR3 cells after 48 hr by SRB assay; settings: OVCAR-3, 48 h
KM12 = assay: Cytotoxicity against Homo sapiens (human) KM12 cells after 48 hr by SRB assay; settings: KM12, 48 h
DU-145 = assay: Cytotoxicity against Homo sapiens (human) DU145 cells after 48 hr by SRB assay; settings: DU-145, 48 h
786-0 = assay: Cytotoxicity against Homo sapiens (human) 786-0 cells after 48 hr by SRB assay; settings: 786-0, 48 h
[1] = Cytotoxicity against Homo sapiens (human) melanoma cells after 48 hr by SRB assay; settings: Melanoma cell
[2] = Cytotoxicity against Homo sapiens (human) ovarian cancer cells after 48 hr by SRB assay; settings: Cancer cell lines
ACHN = assay: Cytotoxicity against Homo sapiens (human) ACHN cells after 48 hr by SRB assay
MCF7 [3] = assay: Cytotoxicity against Homo sapiens (human) MCF7 cells after 48 hr by SRB assay; settings: MCF7, 48 h
NCI-H522 = assay: Cytotoxicity against Homo sapiens (human) NCI-H522 cells after 48 hr by SRB assay; settings: NCI-H522, 48 h
SK-MEL-28 = assay: Cytotoxicity against Homo sapiens (human) SK-MEL-28 cells after 48 hr by SRB assay; settings: SK-MEL-28, 48 h
U-251 = assay: Cytotoxicity against Homo sapiens (human) U251 cells after 48 hr by SRB assay; settings: U-251, 48 h
HT-29 = assay: Cytotoxicity against Homo sapiens (human) HT-29 cells after 48 hr by SRB assay; settings: HT-29, 48 h
MDA-MB-231 = assay: Cytotoxicity against Homo sapiens (human) MDA-MB-231 cells after 48 hr by SRB assay; settings: MDA-MB-231, 48 h
CAKI-1 = assay: Cytotoxicity against Homo sapiens (human) Caki1 cells after 48 hr by SRB assay; settings: CAKI-1, 48 h
RXF 393 = assay: Cytotoxicity against Homo sapiens (human) RXF393 cells after 48 hr by SRB assay; settings: RXF 393, 48 h
[4] = Cytotoxicity against Homo sapiens (human) CNS cancer cells after 48 hr by SRB assay; settings: Cancer cell lines
SF-268 [5] = assay: Cytotoxicity against Homo sapiens (human) SF268 cells after 48 hr by SRB assay; settings: SF-268, 48 h
COLO 205 = assay: Cytotoxicity against Homo sapiens (human) COLO205 cells after 48 hr by SRB assay; settings: COLO 205, 48 h
M14 = assay: Cytotoxicity against Homo sapiens (human) M14 cells after 48 hr by SRB assay; settings: M14, 48 h
HOP-92 = assay: Cytotoxicity against Homo sapiens (human) HOP92 cells after 48 hr by SRB assay; settings: HOP-92, 48 h
Hs-578T = assay: Cytotoxicity against Homo sapiens (human) Hs578T cells after 48 hr by SRB assay
T47D = assay: Cytotoxicity against Homo sapiens (human) T47D cells after 48 hr by SRB assay
LOX IMVI = assay: Cytotoxicity against Homo sapiens (human) LOXIMVI cells after 48 hr by SRB assay
SK-OV-3 = assay: Cytotoxicity against Homo sapiens (human) SKOV3 cells after 48 hr by SRB assay; settings: SK-OV-3, 48 h
[6] = Cytotoxicity against Homo sapiens (human) NCI-ADR-RES cells after 48 hr by SRB assay
EKVX = assay: Cytotoxicity against Homo sapiens (human) EKVX cells after 48 hr by SRB assay
HCT-15 = assay: Cytotoxicity against Homo sapiens (human) HCT15 cells after 48 hr by SRB assay; settings: HCT-15, 48 h
SF-539 = assay: Cytotoxicity against Homo sapiens (human) SF539 cells after 48 hr by SRB assay; settings: SF-539, 48 h
SF-268 [7] = assay: Cytotoxicity against Homo sapiens (human) SF268 cells assessed as cellular growth after 48 hr by Alamar blue assay; design: concentration or dose not given beside the values
SW-620 = assay: Cytotoxicity against Homo sapiens (human) SW620 cells after 48 hr by SRB assay; settings: SW-620, 48 h
[8] = Cytotoxicity against Homo sapiens (human) renal cancer cells after 48 hr by SRB assay; settings: Cancer cell lines
SNB-19 = assay: Cytotoxicity against Homo sapiens (human) SNB19 cells after 48 hr by SRB assay; settings: SNB-19, 48 h
SF-295 = assay: Cytotoxicity against Homo sapiens (human) SF295 cells after 48 hr by SRB assay; settings: SF-295, 48 h
[9] = Cytotoxicity against Homo sapiens (human) non-small cell lung cancer cells after 48 hr by SRB assay; settings: Cancer cell lines
A549 = assay: Cytotoxicity against Homo sapiens (human) A549 cells after 48 hr by SRB assay; settings: A549, 48 h
OVCAR-8 = assay: Cytotoxicity against Homo sapiens (human) OVCAR8 cells after 48 hr by SRB assay; settings: OVCAR-8, 48 h
NCI-H23 = assay: Cytotoxicity against Homo sapiens (human) NCI-H23 cells after 48 hr by SRB assay; settings: NCI-H23, 48 h
UACC-62 = assay: Cytotoxicity against Homo sapiens (human) UACC62 cells after 48 hr by SRB assay; settings: UACC-62, 48 h
NCI-H460 = assay: Cytotoxicity against Homo sapiens (human) NCI-H460 cells assessed as cellular growth after 48 hr by Alamar blue assay; design: concentration or dose not given beside the values
OVCAR-5 = assay: Cytotoxicity against Homo sapiens (human) OVCAR5 cells after 48 hr by SRB assay; settings: OVCAR-5, 48 h
BT-549 = assay: Cytotoxicity against Homo sapiens (human) BT549 cells after 48 hr by SRB assay; settings: BT-549, 48 h
[10] = Cytotoxicity against Homo sapiens (human) breast cancer cells after 48 hr by SRB assay; settings: Cancer cell lines
[11] = Cytotoxicity against Homo sapiens (human) NCI-H322 cells after 48 hr by SRB assay; settings: NCI-H322, 48 h
MCF7 [12] = assay: Cytotoxicity against Homo sapiens (human) MCF7 cells assessed as cellular growth after 48 hr by Alamar blue assay; design: concentration or dose not given beside the values
UACC-257 = assay: Cytotoxicity against Homo sapiens (human) UACC257 cells after 48 hr by SRB assay; settings: UACC-257, 48 h
UO-31 = assay: Cytotoxicity against Homo sapiens (human) UO31 cells after 48 hr by SRB assay; settings: UO-31, 48 h

## NS(=O)(=O)c1ccc(-n2nc3c(c2-c2cccs2)Cc2ccccc2-3)cc1
SK-MEL-5
  GI50: 10.5 µM
OVCAR-3
  GI50: 14.4 µM
KM12
  GI50: 13.5 µM
DU-145
  GI50: 24.1 µM
786-0
  GI50: 17.1 µM
[1]
  GI50: 17.5 µM
  TGI: 38.9 µM
[2]
  GI50: 20.6 µM
  TGI: 37.3 µM
ACHN
  GI50: 11.7 µM
MCF7 [3]
  GI50: > 100 µM
NCI-H522
  GI50: 12.4 µM
SK-MEL-28
  GI50: 25.8 µM
U-251
  GI50: 12.3 µM
HT-29
  GI50: 22.9 µM
MDA-MB-231
  GI50: 17.3 µM
CAKI-1
  GI50: 10.1 µM
RXF 393
  GI50: 17.4 µM
[4]
  GI50: 31.8 µM
  TGI: 42 µM
SF-268 [5]
  GI50: > 100 µM
COLO 205
  GI50: 25.3 µM
M14
  GI50: 17.2 µM
HOP-92
  GI50: 5.56 µM
Hs-578T
  GI50: 16.1 µM
T47D
  GI50: 12.8 µM
LOX IMVI
  GI50: 6.58 µM
SK-OV-3
  GI50: 37.7 µM
[6]
  GI50: 12.4 µM
EKVX
  GI50: 11.9 µM
HCT-15
  GI50: 12 µM
SF-539
  GI50: 21.1 µM
SF-268 [7]
  Activity: <=32%
SW-620
  GI50: 10.7 µM
[8]
  GI50: 13.3 µM
  TGI: 29.7 µM
SNB-19
  GI50: 18.1 µM
SF-295
  GI50: 13.8 µM
[9]
  GI50: 21.7 µM
  TGI: 31.3 µM
A549
  GI50: 20.7 µM
OVCAR-8
  GI50: 20.5 µM
NCI-H23
  GI50: 11.9 µM
UACC-62
  GI50: 11.5 µM
NCI-H460
  Activity: <=32%
OVCAR-5
  GI50: 18.5 µM
BT-549
  GI50: 12.4 µM
[10]
  GI50: 26.1 µM
  TGI: 34.7 µM
[11]
  GI50: 11.9 µM
MCF7 [12]
  Activity: <=32%
UACC-257
  GI50: 23.2 µM
UO-31
  GI50: 12.2 µM

## O=C1CS/C(=N\S(=O)(=O)c2ccc(N3N=C4c5ccccc5CC4C3c3cccs3)cc2)N1C(=O)c1ccccc1 (stereo unspecified)
SK-MEL-5
  GI50: 22.7 µM
OVCAR-3
  GI50: 59.2 µM
KM12
  GI50: 21.4 µM
DU-145
  GI50: 38.2 µM
786-0
  GI50: 48.8 µM
[1]
  GI50: 73.3 µM
  TGI: > 100 µM
[2]
  GI50: 60.9 µM
  TGI: > 100 µM
ACHN
  GI50: 23.6 µM
MCF7 [3]
  GI50: > 100 µM
NCI-H522
  GI50: 60.1 µM
SK-MEL-28
  GI50: > 100 µM
U-251
  GI50: 36.3 µM
HT-29
  GI50: 76 µM
MDA-MB-231
  GI50: 44.6 µM
CAKI-1
  GI50: 39 µM
RXF 393
  GI50: 63.9 µM
[4]
  GI50: 64.9 µM
  TGI: > 100 µM
SF-268 [5]
  GI50: > 100 µM
COLO 205
  GI50: 51 µM
M14
  GI50: 44.7 µM
HOP-92
  GI50: 37.3 µM
Hs-578T
  GI50: 25.3 µM
T47D
  GI50: > 100 µM
LOX IMVI
  GI50: 22.7 µM
SK-OV-3
  GI50: > 100 µM
[6]
  GI50: > 100 µM
EKVX
  GI50: 42.4 µM
HCT-15
  GI50: 56.3 µM
SF-539
  GI50: 44.6 µM
SF-268 [7]
  Activity: <=32%
SW-620
  GI50: 38.5 µM
[8]
  GI50: 59.4 µM
  TGI: 99.1 µM
SNB-19
  GI50: 77 µM
SF-295
  GI50: 31.7 µM
[9]
  GI50: 49.3 µM
  TGI: 85.9 µM
A549
  GI50: 70.5 µM
OVCAR-8
  GI50: 45.7 µM
NCI-H23
  GI50: 25.1 µM
UACC-62
  GI50: 23.2 µM
NCI-H460
  Activity: <=32%
OVCAR-5
  GI50: 32.2 µM
BT-549
  GI50: 33.5 µM
[10]
  GI50: 63 µM
  TGI: > 100 µM
[11]
  GI50: 16.6 µM
MCF7 [12]
  Activity: <=32%
UACC-257
  GI50: > 100 µM
UO-31
  GI50: > 100 µM

From ChEMBL document CHEMBL3046832, “Synthesis of some sulfonamides, disubstituted sulfonylureas or thioureas and some structurally related variants. A class of promising antitumor agents” (2007)
